Measured values as given in patent US20200172473A1, “DUAL MODULATORS OF FARNESOID X RECEPTOR AND SOLUBLE EPOXIDE HYDROLASE” (JOHANN WOLFGANG GOETHE-UNIVERSITÄT FRANKFURT AM MAIN, priority 2017, published 2020).
Values after ≈ are worked out from the molar mass of the structure shown. “Also recorded” adds a separate entry of the source.

Experiments:
aqueous solubility = format: physicochemical; details: LLOQ 0.1 μg/mL
FXR-LBD = biological target: T1, FXR-LBD (Homo sapiens, UniProt Q96RI1); experiment: isothermal titration calorimetry (ITC); format: binding
T1 sequence (Q96RI1 262-486 limits assumed): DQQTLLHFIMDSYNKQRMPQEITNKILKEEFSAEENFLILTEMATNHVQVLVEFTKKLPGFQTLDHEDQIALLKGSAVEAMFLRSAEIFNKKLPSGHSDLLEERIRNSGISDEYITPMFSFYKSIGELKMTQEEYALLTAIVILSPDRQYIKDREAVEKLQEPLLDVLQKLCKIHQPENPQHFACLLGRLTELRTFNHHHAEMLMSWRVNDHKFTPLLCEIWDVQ

PPARγ = biological target: T2, PPARγ (Homo sapiens, UniProt P37231); experiment: Gal4-hybrid reporter gene assay PPARγ in HEK293T cells; format: cell-based
T2 construct: pFA-CMV-hPPARγ-LBD; expressed in transfected cells; host or cells: HEK293T
T2 sequence (P37231 238-503 limits assumed): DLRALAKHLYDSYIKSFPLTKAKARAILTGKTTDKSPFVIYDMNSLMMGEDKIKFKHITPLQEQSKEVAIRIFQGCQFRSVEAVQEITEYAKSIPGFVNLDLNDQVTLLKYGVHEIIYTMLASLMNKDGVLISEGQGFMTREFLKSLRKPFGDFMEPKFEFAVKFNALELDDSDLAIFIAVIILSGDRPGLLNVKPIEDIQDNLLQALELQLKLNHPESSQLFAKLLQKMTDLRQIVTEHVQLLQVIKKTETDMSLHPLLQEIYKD
Description: (§1) Hybrid reporter gene assays for PPARα/γ/δ, LXRα/β, RXRα/β/γ, RARα/β/γ, VDR and PXR Plasmids: The Gal4-fusion receptor plasmids pFA-CMV-hPPARα-LBD^52, pFA-CMV-hPPARγ-LBD^52, pFA-CMV-hPPARδ-LBD^52, pFA-CMV-hLXRα-LBD^32 and pFA-CMV-hLXRβ-LBD^32 have been reported previously. […] Frame and sequence of all fusion receptors were verified by sequencing. pFR-Luc (Stratagene) was used as reporter plasmid and pRL-SV40 (Promega) for normalization of transfection efficiency and cell growth.
Assay procedure: HEK293T cells were grown in DMEM high glucose, supplemented with 10% FCS, sodium pyruvate (1 mM), penicillin (100 U/mL) and streptomycin (100 μg/mL) at 37° C. and 5% CO2. The day before transfection, HEK293T cells were seeded in 96-well plates (2.5·10^4 cells/well). Before transfection, medium was changed to Opti-MEM without supplements. Transient transfection was carried out using Lipofectamine LTX reagent (Invitrogen) according to the manufacturer's protocol with pFR-Luc (Stratagene), pRL-SV40 (Promega) and pFA-CMV-hRXRα-LBD. 5 h after transfection, medium was changed to Opti-MEM supplemented with penicillin (100 U/mL), streptomycin (100 μg/mL), now additionally containing 0.1% DMSO and the respective test compound or 0.1% DMSO alone as untreated control. Each concentration was tested in triplicates and each experiment was repeated independently at least three times. […] Luminescence was measured with an Infinite M200 luminometer (Tecan Deutschland GmbH). […] Fold activation was obtained by dividing the mean RLU of a test compound at a respective concentration by the mean RLU of untreated control. Relative activation was obtained by dividing the fold activation of a test compound at a respective concentration by the fold activation of a respective reference agonist at 1 μM (PPARα: GW7647; PPARγ: pioglitazone; PPARδ: L165,041; LXRα/β: T0901317; RXRs: bexarotene; RARs: tretinoin; VDR calcitriol; PXR: SR12813).

PPARα = biological target: T3, PPARα (Homo sapiens, UniProt Q07869); experiment: Gal4-hybrid reporter gene assay PPARα in HEK293T cells; format: cell-based; details: 10 μM
T3 construct: pFA-CMV-hPPARα-LBD; expressed in transfected cells; host or cells: HEK293T
T3 sequence (Q07869 239-466 limits assumed): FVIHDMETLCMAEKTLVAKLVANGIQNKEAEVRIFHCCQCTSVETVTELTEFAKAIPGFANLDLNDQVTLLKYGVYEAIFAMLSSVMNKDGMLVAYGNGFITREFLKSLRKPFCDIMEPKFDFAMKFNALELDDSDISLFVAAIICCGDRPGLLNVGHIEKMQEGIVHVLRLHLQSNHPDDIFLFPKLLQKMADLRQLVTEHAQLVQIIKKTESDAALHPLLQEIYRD
Description: as §1
(§2) Assay procedure: HEK293T cells were grown in DMEM high glucose, supplemented with 10% FCS, sodium pyruvate (1 mM), penicillin (100 U/mL) and streptomycin (100 μg/mL) at 37° C. and 5% CO2. The day before transfection, HEK293T cells were seeded in 96-well plates (2.5·10^4 cells/well). Before transfection, medium was changed to Opti-MEM without supplements. Transient transfection was carried out using Lipofectamine LTX reagent (Invitrogen) according to the manufacturer's protocol with pFR-Luc (Stratagene), pRL-SV40 (Promega) and pFA-CMV-hRXRα-LBD. 5 h after transfection, medium was changed to Opti-MEM supplemented with penicillin (100 U/mL), streptomycin (100 μg/mL), now additionally containing 0.1% DMSO and the respective test compound or 0.1% DMSO alone as untreated control. […] Luminescence was measured with an Infinite M200 luminometer (Tecan Deutschland GmbH). […]

LXRβ = biological target: T4, LXRβ (Homo sapiens, UniProt P55055); experiment: Gal4-hybrid reporter gene assay LXRβ in HEK293T cells; format: cell-based; details: 10 μM; printed as both LXR subtypes
T4 construct: pFA-CMV-hLXRβ-LBD; expressed in transfected cells; host or cells: HEK293T
T4 sequence (P55055 222-460 limits assumed): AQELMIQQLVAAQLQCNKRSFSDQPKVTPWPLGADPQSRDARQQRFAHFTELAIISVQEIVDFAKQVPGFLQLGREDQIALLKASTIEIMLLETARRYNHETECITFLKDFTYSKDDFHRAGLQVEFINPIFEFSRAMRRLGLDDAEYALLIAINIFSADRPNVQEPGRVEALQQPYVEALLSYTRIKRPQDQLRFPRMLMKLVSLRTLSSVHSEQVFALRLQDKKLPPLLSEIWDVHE
Description: as §1, §2

RXRα = biological target: T5, RXRα (Homo sapiens, UniProt P19793); experiment: Gal4-hybrid reporter gene assay RXRα in HEK293T cells; format: cell-based; details: 10 μM
T5 construct: hRXRα-P19793, residues 225-462; expressed in transfected cells; host or cells: HEK293T
T5 sequence (P19793 225-462): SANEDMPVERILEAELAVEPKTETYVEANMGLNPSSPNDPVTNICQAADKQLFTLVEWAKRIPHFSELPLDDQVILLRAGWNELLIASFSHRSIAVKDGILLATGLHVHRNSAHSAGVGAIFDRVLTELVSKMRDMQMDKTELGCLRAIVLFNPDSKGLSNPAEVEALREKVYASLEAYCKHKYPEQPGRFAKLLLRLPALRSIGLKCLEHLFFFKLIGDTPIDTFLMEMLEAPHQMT
Description: as §1, §2

HepG2 cells = experiment: WST-1 cytotoxicity assay; format: cell-based; details: up to 100 μM
[1] = in vivo pharmacokinetic evaluation in mice; set-up: species or system mouse; details: single dose p.o. 10 mg/kg body weight
Protocol: Three additional animals served as vehicle control.
Food and water were available ad libitum.
A part of the blood was centrifuged (6000 rpm, 10 min, +4° C.) to obtain plasma for quantification of EET/DHET ratio and stored at −80° C. until further evaluation. For liver collection, mice were sacrificed by cervical dislocation after the last blood sampling (8 h post dose). Complete liver was immediately snap-frozen and stored at −80° C. until further evaluation. Plasma and liver were equally obtained from three control mice which received oral application of the vehicle (1% HPMC/Tween 80 (99:1)).

For `CC(C)(C)c1ccc(C(=O)NCc2ccc(NS(C)(=O)=O)cc2Cl)cc1` [compound 57, 4-(tert-Butyl)-N-(2-chloro-4-(methylsulfonamido)benzyl)benzamide], the aqueous solubility (aqueous solubility) was 1.5 µg/mL (≈ 3.8 µM), the Kd (FXR-LBD) was 0.13 µM and the “ΔH (ITC)” value (FXR-LBD) was -19.5 kcal/mol. For the same compound, the “ΔS (ITC)” value (FXR-LBD) was −34.0 cal/mol·K, the “selectivity for FXR amongst nuclear receptors” value (PPARγ) was no less than 720 and the PPARγ max. activation (PPARγ; relative to pioglitazone at 1 μM) was 30±1%. For the same compound, the EC50 (PPARγ; weak partial agonism) was 14.7 ± 0.9 µM, the “activity on PPARα” value (PPARα) was “inactive” and the “activity on LXRβ” value (LXRβ) was “inactive”. For the same compound, the “activity on RXRα” value (RXRα) was “inactive”, the “cytotoxicity in WST-1 assay” value (HepG2 cells) was “no cytotoxic activity; also recorded: no cytotoxicity” and the Cmax [1] was 1182 ng/mL. For the same compound, the t1/2 [1] was 42 min and the tmax [1] was 30 min.
